The source of these data is patent US10597380B2, “Pyridazinone-based broad spectrum anti-influenza inhibitors” (Hoffmann-La Roche Inc., priority 2017, dated 2020).

By IC50 is commonly meant the point on the concentration scale where inhibition reaches its midpoint.

This assay deals with Influenza A/WSN/33-Luciferase virus. In words: microbe, parasite or virus in culture. Format: cell-based. The following applies: A549, 72 h, luciferase signal three days later, read-out: IC50 antiviral activity (Luciferase reporter assay). On the technique in general: A reporter such as luciferase makes a cellular process visible.

The structures appear in SMILES notation.

Regarding `COc1ccc(-n2nc(Nc3cc(F)cn(C)c3=O)c3c(c2=O)CCC3)cn1` [Example 57, 1-[(5-fluoro-1-methyl-2-oxo-3-pyridyl)amino]-3-(6-methoxy-3-pyridyl)-6,7-dihydro-5H-cyclopenta[d]pyridazin-4-one], the IC50 was 352 nM.

Turning to `Cn1cccc(Nc2nn(-c3ccc(C(C)(C)C)nc3)c(=O)c3c2CCC3)c1=O` [Example 58, 3-(6-tert-butyl-3-pyridyl)-1-[(1-methyl-2-oxo-3-pyridyl)amino]-6,7-dihydro-5H-cyclopenta[d]pyridazin-4-one], the IC50 amounted to 17 nM.

As for `Cn1cccc(Nc2nn(-c3ccc(OC(F)F)cc3)c(=O)c3c2CCC3)c1=O` [Example 59, 3-[4-(difluoromethoxy)phenyl]-1-[(1-methyl-2-oxo-3-pyridyl)amino]-6,7-dihydro-5H-cyclopenta[d]pyridazin-4-one], the 50% inhibitory concentration (IC50) came to 137 nM.

In the case of `Cn1cccc(Nc2nn(-c3ccc(C(F)(F)F)cc3)c(=O)c3c2CCC3)c1=O` [Example 60, 1-[(1-methyl-2-oxo-3-pyridyl)amino]-3-[4-(trifluoromethyl)phenyl]-6,7-dihydro-5H-cyclopenta[d]pyridazin-4-one], the IC50 came out at 11 nM.

Consider `Cn1cccc(Nc2nn(-c3ccc(OC(F)(F)F)cc3)c(=O)c3c2CC(C)(C)C3)c1=O` [Example 61, 6,6-dimethyl-1-[(1-methyl-2-oxo-3-pyridyl)amino]-3-[4-(trifluoromethoxy)phenyl]-5,7-dihydrocyclopenta[d]pyridazin-4-one], for which the IC50 was 60 nM.

For the compound `Cn1cccc(Nc2nn(-c3ccc(OC(F)(F)F)cc3)c(=O)c3c2CCOC3)c1=O` [Example 62, 1-[(1-methyl-2-oxo-3-pyridyl)amino]-3-[4-(trifluoromethoxy)phenyl]-7,8-dihydro-5H-pyrano[3,4-d]pyridazin-4-one], the IC50 is 186 nM.

Turning to `Cn1cccc(Nc2nn(-c3ccc(OC(F)(F)F)cc3)c(=O)c3c2COCC3)c1=O` [Example 63, 4-[(1-methyl-2-oxo-3-pyridyl)amino]-2-[4-(trifluoromethoxy)phenyl]-7,8-dihydro-5H-pyrano[3,4-d]pyridazin-1-one], the IC50 was found to be 33 nM.

On to `Cc1ccc(Nc2nn(-c3ccc(OC(F)(F)F)cc3)c(=O)c3ccccc23)c(=O)n1C` [Example 64, 4-[(1,6-dimethyl-2-oxo-3-pyridyl)amino]-2-[4-(trifluoromethoxy)phenyl]phthalazin-1-one], for which the IC50 amounted to 355 nM.

As for `Cc1ncc(Nc2nn(-c3ccc(OC(F)(F)F)cc3)c(=O)c3ccccc23)c(=O)[nH]1` [Example 65, 4-[(2-methyl-6-oxo-1H-pyrimidin-5-yl)amino]-2-[4-(trifluoromethoxy)phenyl]phthalazin-1-one], the IC50 turned out to be 405 nM.

Regarding `Cn1cncc(Nc2nn(-c3ccc(OC(F)(F)F)cc3)c(=O)c3ccccc23)c1=O` [Example 66, 4-[(1-methyl-6-oxo-pyrimidin-5-yl)amino]-2-[4-(trifluoromethoxy)phenyl]phthalazin-1-one], the IC50 turned out to be 36 nM.

For `CCc1cc(Nc2nn(-c3ccc(OC(F)(F)F)cc3)c(=O)c3ccccc23)c(=O)n(C)c1` [Example 67, 4-[(5-ethyl-1-methyl-2-oxo-3-pyridyl)amino]-2-[4-(trifluoromethoxy)phenyl]phthalazin-1-one], the half-maximal inhibitory concentration (IC50) turned out to be 563 nM.

Consider `Cc1ccc(Nc2nn(-c3ccc(OC(F)(F)F)cc3)c(=O)c3ccccc23)c(=O)[nH]1` [Example 68, 4-[(6-methyl-2-oxo-1H-pyridin-3-yl)amino]-2-[4-(trifluoromethoxy)phenyl]phthalazin-1-one], for which the IC50 is 1710 nM.

Take `COC(=O)CCn1cccc(Nc2nn(-c3ccc(OC(F)(F)F)cc3)c(=O)c3ccccc23)c1=O` [Example 69, methyl 3-[2-oxo-3-[[4-oxo-3-[4-(trifluoromethoxy)phenyl]phthalazin-1-yl]amino]-1-pyridyl]propanoate]: the IC50 was 228 nM.
